For the series the following is noted: Crystal; DTA.

Numbers after ± are expanded uncertainties.

For `NC(=O)N1c2ccccc2C=Cc2ccccc21` [carbamazepine], the Normal melting temperature came out at 193.00 ± 1 °C.

For the origin of these results see the NIST ThermoML archive (doi:10.1021/je8002157).
